Legend:
[1] = test system: potatoes of the variety Bintje; experiment: Fogging trial in potato storage cabins, sprout index (PCA scale); type: in vivo, Solanum tuberosum; conditions: fogging every 3 weeks during storage, PCA scale 1-9
Experimental: The storage system was designed to duplicate a large commercial storage facility in miniature. It consisted of 4 test cabins, with room for 4 boxes per level. In total there were 7 levels, and the boxes were placed in a stair-pattern, in clock-wise direction. Each cabin could be used to store up to 560 kg of potatoes per cabin. The dimensions of a cabin are depicted in FIG. 1.
During storage the air temperature within the storage system was kept between 5.0° C. and 9.5° C. The relative humidity was kept between 87% and 100%.
The application equipment used for hot fogging was IGEBA TF-35. The application equipment used for cold fogging was VEUGEN, type: FOGCOL. The operation pressure was 3.3 bar. […]
Around 15 minutes before treatment, Automatic Regulation was switched off and Manual Internal Ventilation was switched on (Force III). […] Note: Ventilation Force III means ˜900 m^3/h. • As the exact weight of tubers in the cell was known, the exact quantity of formulated product was calculated and prepared. • During spraying/fogging and till around 15 minutes after spraying, Internal • Ventilation was kept switched on (Force III) to assure a good contact between product and tubers. • Around 15 minutes after spraying, Internal Ventilation was switched off • The day after (minimum 12 hours after end of spraying) Automatic Regulation was switched on till next application or till end of trial […]

potatoes = conditions: hot fogging; cited from earlier work

Compound	sprout growth (sprout index, FIG. 2) [1]	anti-sprouting efficacy in combination with CIPC (potatoes)
C=C(C)C1CC=C(C)CC1 (centres unmarked) [Limonene, 1-methyl-4-(1-methylethenyl)-cyclohexene]	did not have any effect on sprout growth	
C=C(C)C1CC=C(C)C(=O)C1 (centres unmarked) [carvone]		good result

Source: patent US20200236959A1, “METHOD FOR ANTI-SPROUTING TUBER TREATMENT WITH REDUCED AMOUNT OF CIPC” (priority 2014, published 2020)
